The values that follow come from US20240166702A1, “COMPOSITIONS AND METHODS FOR TREATING BREAST CANCER” (Arizona Board of Regents on Behalf of The University of …, priority 2021, published 2024).

Data set [1] has as its system EGFR dependent mammary gland tumors of WAP-TGFα mice. Description: Tumor regression study in WAP-TGFα transgenic mice. The format is in vivo, mouse. An excerpt:
Mice were bred continuously to induce transgene expression and palpated weekly for tumor formation. […] A. Changes in tumor size from entry into study until end of study are shown for each individual tumor, (*) indicate tumors that entered the study at size greater than 500 mm^3, all other tumors entered the study at ˜100 mm^3. B. a Kaplan-Meier survival curve was generated showing when mice were sacrificed by either reaching tumor burden (2000 mm^3) or the end of the study (p=0.0002). C. Upon sacrifice tumors were harvested and fixed in 10% formalin and embedded in paraffin. Slides were stained with hematoxylin and eosin and imaged at 20×. D. Protein lysates were generated from tumors upon sacrifice and probed for the indicated proteins.
C. […] D. Cells were treated similarly as in C., fractionated and evaluated for protein localization by immunoblot.
Mice are continually bred to activate the pregnancy-dependent WAP promoter, which drives expression of the EGFR ligand Transforming Growth Factor alpha (TGFα) strictly to the mouse mammary glands. This model stochastically forms unifocal mammary adenocarcinomas through a process that begins with mammary hyperplasia, followed by tumor formation over approximately 8 months. […] No difference in weight or behavior or grooming was observed. Therefore 10 μg/g body weight was used for subsequent studies.
When tumors reached >100 mm^3, IV injections began at 3×/week, 10 μg/g body weight and tumors were measured 3×/week with calipers. Animals were injected for 4 weeks or until they reached maximal tumor burden, defined as a single tumor measuring 2000 mm^3. […] The WAP-TGFα is a spontaneous model in which each tumor arises and progresses in a heterogeneous fashion. Each tumor was evaluated separately to determine the overall impact of SNX1.3 treatment (FIG. 3A). […] In this study, mice were sacrificed after 4 weeks of injections or once they reached tumor burden, represented by the Kaplin-Meyer graph (FIG. 3B).

In a further data set the test system is IL1RL1. Description: RT-PCR analysis of IL1RL1 in MDA-MB-468 cells. The format is cell-based, human. Conditions: similarly treated MDA-MB-468 cells. An excerpt:
A-C. […] A. A gene ontology enrichment bubble plot was produced, and the top 30 enriched GO terms are shown. Color indicates −1*log 10(FDR) for significance of overlap (the higher the more significant). X axis=log odds ratio for genes annotated to that GO term. […] C. RT-PCR analysis of IL1RL1.
A significant impact on the immune response, especially IL-1 dependent pathways was identified (FIG. 12A). IL-1-specific genes were searched and an upregulation in several IL1R genes, including IL1R2, IL1RL1, IL1RL2, IL1RAP and IL1RN (FIG. 12B) were found. […] It is hypothesized that the transient and targeted activation of the IL1/TLR pathway in the tumors may allow for the immune system to become active where previously these tumors were immune suppressive. Triple negative breast cancers with active EGFR pathways are clinically immune suppressive, and it is hypothesized that blocking nEGFR may allow for the utilization of immune targeting to treat these cancers.

Data set [2] concerns WAP-TGFα tumors. Description: Immune profiling FACS analysis of WAP-TGFα tumors. The format is in vivo, mouse. The conditions noted are these: 3 treated tumors; preliminary FACS. The protocol: Preliminary immune profiling FACS analysis performed with the markers described in Example 1.
To begin to evaluate how these changes indicated by NanoString represented the immune microenvironment of these tumors, Immune Profiling was performed. […] When tumors had regressed to ˜100 mm^3 (after 1-2 weeks of treatment), tumor were excised, treated with collagenase and analyzed by FACS, using a 17-antibody panel to determine cell types present. Data was analyzed by first selecting for CD45+ cells to isolate leukocytes, then further gated based on markers specific to cells of both the adaptive and innate immune system. This preliminary analysis was done with 3 cSNX1.3-treated tumors, and the internal positive control of one spleen. […]
Immune Profiling: Tissues are digested and analyzed by FACS for the following immune markers: CD45 (lymphocytes), CD4 (helper T cells) CD3 (Pan T cell), CD25 (Activated T cells), CD8a (cytotoxic T cells), Ly6G (G-Myeloid Derived Suppressor Cells (MDSC), CD11 b (MDSC), Ly6C (M-M DSC), CD11C (Dendritic Cells), F4/80 (Macrophages), Granzyme B (Natural Killer (NK) and CD8 T cells), Arginase 1 (MDSC), Perforin (NK and CD8 Tcells), iNos (macrophages), TNFα (pro inflammatory cytokine), INFy (pro inflammatory cytokine), FoxP3 (Treg). The samples are run on a Cytek Aurora full spectrum flow cytometer and are optimized for the mouse tissues (FIG. 10). […]

The test system of data set [3] is WAP-TGFα tumors. Description: Anti-NKp46 antibody analysis of WAP-TGFα tumors for NK cells. Conditions: anti-NKp46 antibodies. The format is in vivo, mouse. The protocol: (§1) C. WAP-TGFα tumors treated with either SNX1.3 or cPTD4 were analyzed for NK cells using an anti-NKp46 antibody. Inset is 20×.
In addition to bioinformatics identification of CTLs in these tumors, similar analysis implicated recruitment of NK cells as well (FIG. 9). As a part of the innate immune system, NK cells should only be recruited if a change has occurred to display NK-activating antigens. While there are many such antigens expressed under a variety of immune modulation conditions, some are highly associated with activation of NK cells against cancers, such as ULBP2/3 or MICA/MICB32.

In data set [4] the test system is WAP-TGFα tumors. Description: NanoString analysis of WAP-TGFα tumors (PanCancer IO 360 Panel). Format: in vivo, mouse. The procedure: A. Tumors (n=6 each treatment) from WAP-TGF mice as described in FIG. 1 were embedded and analyzed by NanoString. […] C. Tumors were dissected, lysed, and analyzed for apoptosis by probing for cleaved PARP and PDL1 expression.
as §1
Due to the increased leukocyte infiltration identified by histology of cSNX1.3-treated WAP-TGFα mice, NanoString analysis was performed using a panel that identifies alterations in immune regulators through localized analysis of transcript expression (PanCancer IO 360 Panel). […] These include several immune/inflammatory genes (such as CD2, TLR, CD28, H2-M3, Ly6C1, cytokines, and chemokines) as well as genes that could impact the metastatic potential of the microenvironment (including collagen 11A1 and MM P12). NanoString bioinformatics analysis further identified that these changes could be due to an increase in Cytotoxic T lymphocytes (CTLs) in cSNX1.3-treated samples compared to PTD4 (FIG. 8B). […] Therefore, tumor lysates were prepared and evaluated for apoptosis and a loss of the negative immune checkpoint receptor PDL1 (FIG. 8C). […] These changes could indicate an alteration from an immune-suppressive to an immune-surveilling microenvironment.

Setting [5] is: 10 μg/g IV 3×/week, first to last measurement.

For `CC[C@H](C)[C@H](NC(=O)[C@@H](NC(=O)[C@H](Cc1c[nH]cn1)NC(=O)[C@H](CC(N)=O)NC(=O)[C@H](CCCCN)NC(=O)[C@H](C)NC(=O)[C@H](CCCNC(=N)N)NC(=O)[C@H](C)NC(=O)[C@H](CCC(N)=O)NC(=O)[C@H](CCCNC(=N)N)NC(=O)[C@H](C)NC(=O)[C@H](C)NC(=O)[C@H](C)NC(=O)[C@H](CCCNC(=N)N)NC(=O)[C@H](C)NC(=O)[C@H](Cc1ccc(O)cc1)NC(C)=O)C(C)C)C(=O)N[C@@H](CCCCN)C(=O)N[C@@H](Cc1ccc(O)cc1)C(=O)N[C@@H](CC(C)C)C(=O)N[C@@H](CCC(=O)O)C(=O)N[C@H](C(=O)N[C@@H](CC(C)C)C(=O)N[C@@H](CC(C)C)C(=O)N[C@@H](Cc1ccc(O)cc1)C(=O)N[C@@H](CO)C(=O)N[C@@H](CCC(N)=O)C(=O)N[C@@H](CCC(N)=O)C(=O)N[C@@H](CCC(N)=O)C(=O)N[C@@H](CC(C)C)C(=O)N[C@@H](C)C(=O)N[C@@H](CCCCN)C(=O)N[C@@H](Cc1ccc(O)cc1)C(=O)N[C@@H](Cc1c[nH]c2ccccc12)C(=O)N[C@@H](CCC(=O)O)C(=O)N[C@@H](C)C(=O)N[C@@H](Cc1ccccc1)C(=O)N[C@@H](CC(C)C)C(N)=O)[C@@H](C)O` [cSNX1.3], the “mice that reached maximal tumor burden (2000 mm^3) before the end of the study” value in data set [1] (10 μg/g IV 3×/week, 4 weeks, p=0.0002 between groups) was 1/6. Further, in data set [1] (setting [5]), the tumors that regressed is recorded as 7/11 and the “tumors with no change in tumor volume” value is 2/11. Besides, the “tumors that grew through the study” value in data set [1] (10 μg/g IV 3×/week, the growing cSNX1.3 tumors entered at greater than 500 mm^3) stood at 2. Further, the average tumor regression in data set [1] (10 μg/g body weight IV 3×/week, 4 weeks or until tumor burden, n=11 tumors) came to 4 mm^3/day. This compound also showed a tumors fully regressed in data set [1] (measured with calipers, confirmed during necropsy) of 3. Besides, the “impact on animal weight” value in data set [1] (weighed throughout the study, 10 μg/g IV 3×/week) is recorded as “no impact”. Besides, the IL1RL1 expression entry in the data set with IL1RL1 is on record as “upregulated”. In the data set with WAP-TGFα tumors [2], the CTLs in tumors entry was “Abundant”; the “M1 macrophages over M2 macrophages (M1/M2 ratio)” value was “high and increase”. The “NK cell infiltration into tumors” value in the data set on WAP-TGFα tumors [3] was “Significant NK cell infiltration”. In addition, the “expression of TLR1, TLR7, TLR8, TLR9, IRF5 and IRF8” value in the data set with WAP-TGFα tumors [4] (NanoString) is reported as “increased expression”. In the data set on WAP-TGFα tumors [4] (NanoString bioinformatics, compared to PTD4, six tumors each), the “Cytotoxic T lymphocytes (CTLs) in tumors” value is given as “increase”. In addition, in the data set on WAP-TGFα tumors [4] (NanoString, compared to PTD4 control), the “NK cells in tumor samples” value is listed as “increase”.
